Reference: patent publication US20250215030A1, “STAT MODULATORS AND USES THEREOF” (Recludix Pharma, Inc., priority 2022, published 2025)
pIC50: −log10 of the molar value.

Tests used:
[1] = target: T1, Recombinant STAT3 protein (STAT3(G127-I722)) (Homo sapiens, UniProt P40763); assay: STAT3 Fluorescence Polarization (FP) Assay; assay type: binding; conditions: STAT3(G127-I722) 25 nM, probe 5-FAM-GpYLPQTV-NH2 2 nM, 45-minute incubation
T1 construct: STAT3(G127-I722)
Experimental: STAT3 Fluorescence Polarization (FP) Assay
An FP assay was developed to determine IC50 values for test substances. Recombinant STAT3 protein (STAT3(G127-I722)) at 25 nM was combined with a fluorescently labeled, phosphotyrosine peptide probe (5-FAM-GpYLPQTV-NH2) at 2 nM in FP buffer (10 mM HEPES pH 7.4, 50 mM NaCl, 1 mM EDTA, 0.05% Tween 20, 2 mM DTT). 50 μL of STAT3-probe mixture was added to serial diluted compounds in black, 96-well plates (Greiner BioOne 655076) to a final concentration of 1% DMSO. Reaction components were mixed, and FP was measured after 45-minute incubation at room temperature using a Tecan Spark multimode plate reader. FP signal (mP) was plotted against the log concentration of the test substances and IC50 values were calculated by nonlinear regression analysis using GraphPad Prism software. For STAT3 FP assay, A=≤100 nM; B=>100-1000 nM; C=>1-10 μM; and D=>10 μM.

[2] = target: T2, Recombinant STAT6 protein (STAT6(W123-T658)) (Homo sapiens, UniProt P42226); assay: STAT6 Fluorescence Polarization (FP) Assay; assay type: binding; conditions: STAT6(W123-T658) 250 nM, probe 5-FAM-ApYKPFQDLI-NH2 2 nM, 45-minute incubation
T2 construct: STAT6(W123-T658)
T2 sequence (P42226 123-658): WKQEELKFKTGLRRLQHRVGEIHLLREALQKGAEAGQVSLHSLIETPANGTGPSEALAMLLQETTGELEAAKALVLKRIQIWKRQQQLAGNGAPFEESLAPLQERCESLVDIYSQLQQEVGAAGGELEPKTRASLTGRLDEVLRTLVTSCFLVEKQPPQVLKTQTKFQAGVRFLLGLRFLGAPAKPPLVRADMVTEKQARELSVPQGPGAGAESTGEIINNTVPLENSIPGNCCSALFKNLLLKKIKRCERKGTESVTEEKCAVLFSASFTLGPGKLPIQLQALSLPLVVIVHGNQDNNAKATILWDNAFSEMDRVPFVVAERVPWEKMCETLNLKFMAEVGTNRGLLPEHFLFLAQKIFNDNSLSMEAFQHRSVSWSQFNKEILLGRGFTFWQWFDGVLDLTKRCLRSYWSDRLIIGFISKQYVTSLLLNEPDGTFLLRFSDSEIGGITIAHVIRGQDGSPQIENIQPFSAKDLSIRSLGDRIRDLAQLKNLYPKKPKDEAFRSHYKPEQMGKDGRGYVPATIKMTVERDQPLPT
Experimental: STAT6 Fluorescence Polarization (FP) Assay
An FP assay was developed to determine IC50 values for test substances. Recombinant STAT6 protein (STAT6(W123-T658)) at 250 nM was combined with a fluorescently labeled, phosphotyrosine peptide probe (5-FAM-ApYKPFQDLI-NH2) at 2 nM in FP buffer (10 mM HEPES pH 7.4, 50 mM NaCl, 1 mM EDTA, 0.05% Tween 20, 2 mM DTT). 50 μL of STAT6-probe mixture was added to serial diluted compounds in black, 96-well plates (Greiner BioOne 655076) to a final concentration of 1% DMSO. Reaction components were mixed, and FP was measured after 45-minute incubation at room temperature using a Tecan Spark multimode plate reader. FP signal (mP) was plotted against the log concentration of the test substances and IC50 values were calculated by nonlinear regression analysis using GraphPad Prism software. For STAT6 FP assay, A=≤300 nM; B=>300-3000 nM; C=>3-30 μM; and D=>30 μM.

T1 sequence (P40763 127-722, species assumed): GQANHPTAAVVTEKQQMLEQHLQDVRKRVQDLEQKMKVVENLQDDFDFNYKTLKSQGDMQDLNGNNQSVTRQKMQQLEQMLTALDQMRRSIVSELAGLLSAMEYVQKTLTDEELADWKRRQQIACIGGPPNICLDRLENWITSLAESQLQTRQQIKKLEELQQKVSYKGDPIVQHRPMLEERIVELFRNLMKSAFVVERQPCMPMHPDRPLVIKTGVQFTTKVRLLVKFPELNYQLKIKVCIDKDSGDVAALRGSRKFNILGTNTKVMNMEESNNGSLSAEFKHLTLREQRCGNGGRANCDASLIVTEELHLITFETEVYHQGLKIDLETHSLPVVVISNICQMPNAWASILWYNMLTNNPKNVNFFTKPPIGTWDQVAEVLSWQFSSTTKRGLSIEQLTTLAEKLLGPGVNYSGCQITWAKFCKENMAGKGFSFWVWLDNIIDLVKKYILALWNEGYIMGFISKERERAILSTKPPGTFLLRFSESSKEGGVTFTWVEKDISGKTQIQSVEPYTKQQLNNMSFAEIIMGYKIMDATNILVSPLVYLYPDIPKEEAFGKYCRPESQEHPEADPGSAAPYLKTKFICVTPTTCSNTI

CCc1ccncc1C1CN(C(=O)[C@@H]2CC[C@@H]3C[C@@H]4C[C@@H]4C[C@H](NC(=O)c4cc5cc(CP(=O)(O)O)ccc5s4)C(=O)N32)C1 [Example 343, ((2-(((3S,6S,7aR,8aS,9aR)-3-(3-(4-ethylpyridin-3-yl)azetidine-1-carbonyl)-5-oxodecahydro-1H-cyclopropa[d]pyrrolo[1,2-a]azocin-6-yl)carbamoyl)benzo[b]thiophen-5-yl)methyl)phosphonic acid] showed a pIC50 [1] greater than 7.00 and a pIC50 [2] of less than 4.52.
O=C(N[C@H]1C[C@@H]2C[C@@H]2C[C@H]2CC[C@@H](C(=O)N3CCOc4ccccc43)N2C1=O)c1cc2cc(C(F)P(=O)(O)O)ccc2s1 (stereo partly drawn) [Example 372, ((2-(((3S,6S,7aS,8aR,9aR)-3-(3,4-dihydro-2H-benzo[b][1,4]oxazine-4-carbonyl)-5-oxodecahydro-1H-cyclopropa[d]pyrrolo[1,2-a]azocin-6-yl)carbamoyl)benzo[b]thiophen-5-yl)fluoromethyl)phosphonic acid] showed a pIC50 [1] of 5.00 to 6.00 and a pIC50 [2] of 4.52 to 5.52.
N#C[C@@H]1[C@@H](c2cccnc2)CN(C(=O)[C@@H]2CC[C@@H]3C[C@H]4C[C@H]4C[C@H](NC(=O)c4cc5cc([C@H](F)P(=O)(O)O)ccc5s4)C(=O)N32)C12CC2 (single isomer, unassigned) [Example 429] was tested, and the pIC50 [1] was 5.00 to 6.00 and the pIC50 [2] was no less than 6.52.
With O=C(N[C@H]1C[C@@H]2C[C@@H]2C[C@H]2CC[C@@H](C(=O)N[C@@H]3CCN(c4ccccc4)C3)N2C1=O)c1cc2cc(C(F)(F)P(=O)(O)O)ccc2s1 [Compound 52, (difluoro(2-(((3S,6S,7aS,8aR,9aR)-5-oxo-3-(((R)-1-phenylpyrrolidin-3-yl)carbamoyl)decahydro-1H-cyclopropa[d]pyrrolo[1,2-a]azocin-6-yl)carbamoyl)benzo[b]thiophen-5-yl)methyl)phosphonic acid] the pIC50 [1] was 6.00 to 7.00 and the pIC50 [2] was 5.52 to 6.52.
O=C(N[C@H]1C[C@H]2C[C@H]2C[C@H]2CC[C@@H](C(=O)N3CC(c4ccccn4)C3)N2C1=O)c1cc2cc(CP(=O)(O)O)ccc2s1 [Compound 23, ((2-(((3S,6S,7aR,8aS,9aR)-5-oxo-3-(3-(pyridin-2-yl)azetidine-1-carbonyl)decahydro-1H-cyclopropa[d]pyrrolo[1,2-a]azocin-6-yl)carbamoyl)benzo[b]thiophen-5-yl)methyl)phosphonic acid] was tested, and the pIC50 [1] was 6.00 to 7.00 and the pIC50 [2] was less than 4.52.
In the case of O=C(N[C@H]1C[C@@H]2C[C@@H]2C[C@H]2CC[C@@H](C(=O)N3CC(F)(C(=O)N4CCOCC4)C3)N2C1=O)c1cc2cc(C(F)(F)P(=O)(O)O)ccc2s1 [Compound 95, (difluoro(2-(((3S,6S,7aS,8aR,9aR)-3-(3-fluoro-3-(morpholine-4-carbonyl)azetidine-1-carbonyl)-5-oxodecahydro-1H-cyclopropa[d]pyrrolo[1,2-a]azocin-6-yl)carbamoyl)benzo[b]thiophen-5-yl)methyl)phosphonic acid], the pIC50 [1] was 6.00 to 7.00 and the pIC50 [2] was 4.52 to 5.52.
For O=C(N[C@H]1C[C@@H]2C[C@@H]2C[C@H]2CC[C@@H](C(=O)N3CC(O)(c4ccccn4)C3)N2C1=O)c1cc2cc(C(F)(F)P(=O)(O)O)ccc2s1 [Compound 87, (difluoro(2-(((3S,6S,7aS,8aR,9aR)-3-(3-hydroxy-3-(pyridin-2-yl)azetidine-1-carbonyl)-5-oxodecahydro-1H-cyclopropa[d]pyrrolo[1,2-a]azocin-6-yl)carbamoyl)benzo[b]thiophen-5-yl)methyl)phosphonic acid], the pIC50 [1] was greater than 7.00 and the pIC50 [2] was 4.52 to 5.52.
Compound O=C(N[C@H]1C[C@H]2C[C@H]2C[C@H]2CC[C@@H](C(=O)N3CC(c4cnccc4O)C3)N2C1=O)c1cc2cc(CP(=O)(O)O)ccc2s1 [Example 294, ((2-(((3S,6S,7aR,8aS,9aR)-3-(3-(4-hydroxypyridin-3-yl)azetidine-1-carbonyl)-5-oxodecahydro-1H-cyclopropa[d]pyrrolo[1,2-a]azocin-6-yl)carbamoyl)benzo[b]thiophen-5-yl)methyl)phosphonic acid] has a pIC50 [1] greater than 7.00 and a pIC50 [2] of 4.52 to 5.52.
O=C(N[C@H]1C[C@@H]2C[C@@H]2C[C@H]2CC[C@@H](C(=O)N3CC(Cc4cccc(F)c4)C3)N2C1=O)c1cc2cc(CP(=O)(O)O)ccc2s1 [Example 349, ((2-(((3S,6S,7aS,8aR,9aR)-3-(3-(3-fluorobenzyl)azetidine-1-carbonyl)-5-oxodecahydro-1H-cyclopropa[d]pyrrolo[1,2-a]azocin-6-yl)carbamoyl)benzo[b]thiophen-5-yl)methyl)phosphonic acid] was tested, and the pIC50 [1] was 6.00 to 7.00 and the pIC50 [2] was 4.52 to 5.52.
With O=C(N[C@H]1C[C@@H]2C[C@@H]2C[C@H]2CC[C@@H](C(=O)N3CC(n4ccnc4)C3)N2C1=O)c1ccc2ccc(C(F)(F)P(=O)(O)O)cc2c1 [Compound 46, ((7-(((3S,6S,7aS,8aR,9aR)-3-(3-(1H-imidazol-1-yl)azetidine-1-carbonyl)-5-oxodecahydro-1H-cyclopropa[d]pyrrolo[1,2-a]azocin-6-yl)carbamoyl)naphthalen-2-yl)difluoromethyl)phosphonic acid] the pIC50 [1] was greater than 7.00 and the pIC50 [2] was 5.52 to 6.52.
For Cn1cc(OC2CN(C(=O)[C@@H]3CC[C@@H]4C[C@H]5C[C@H]5C[C@H](NC(=O)c5cc6cc(CP(=O)(O)O)ccc6s5)C(=O)N43)C2)cn1 [Example 335, ((2-(((3S,6S,7aS,8aR,9aR)-3-(3-((1-methyl-1H-pyrazol-4-yl)oxy)azetidine-1-carbonyl)-5-oxodecahydro-1H-cyclopropa[d]pyrrolo[1,2-a]azocin-6-yl)carbamoyl)benzo[b]thiophen-5-yl)methyl)phosphonic acid], the pIC50 [1] was 5.00 to 6.00 and the pIC50 [2] was less than 4.52.
Work on O=C(N[C@H]1C[C@@H]2C[C@@H]2C[C@H]2CC[C@@H](C(=O)N3CC(N4CCOCC4)C3)N2C1=O)c1cc2cc(C(F)(F)P(=O)(O)O)ccc2s1 [Compound 91, (difluoro(2-(((3S,6S,7aS,8aR,9aR)-3-(3-morpholinoazetidine-1-carbonyl)-5-oxodecahydro-1H-cyclopropa[d]pyrrolo[1,2-a]azocin-6-yl)carbamoyl)benzo[b]thiophen-5-yl)methyl)phosphonic acid] yielded a pIC50 [1] of 6.00 to 7.00 and a pIC50 [2] of 4.52 to 5.52.
Cn1cc(C2CN(C(=O)[C@@H]3CC[C@@H]4C[C@H]5C[C@H]5C[C@H](NC(=O)c5cc6cc(C(F)(F)P(=O)(O)O)ccc6s5)C(=O)N43)C2)cn1 [Example 282, (difluoro(2-(((3S,6S,7aS,8aR,9aR)-3-(3-(1-methyl-1H-pyrazol-4-yl)azetidine-1-carbonyl)-5-oxodecahydro-1H-cyclopropa[d]pyrrolo[1,2-a]azocin-6-yl)carbamoyl)benzo[b]thiophen-5-yl)methyl)phosphonic acid] gave a pIC50 [1] greater than 7.00 and a pIC50 [2] of 4.52 to 5.52.
In the case of O=C(N[C@H]1C[C@@H]2C[C@@H]2C[C@H]2CC[C@@H](C(=O)N3CC(Cc4cncnc4)C3)N2C1=O)c1cc2cc(CP(=O)(O)O)ccc2s1 [Example 364, ((2-(((3S,6S,7aS,8aR,9aR)-5-oxo-3-(3-(pyrimidin-5-ylmethyl)azetidine-1-carbonyl)decahydro-1H-cyclopropa[d]pyrrolo[1,2-a]azocin-6-yl)carbamoyl)benzo[b]thiophen-5-yl)methyl)phosphonic acid], the pIC50 [1] was 5.00 to 6.00 and the pIC50 [2] was less than 4.52.
For O=C(N[C@H]1C[C@@H]2C[C@@H]2C[C@H]2CC[C@@H](C(=O)N3CC(Cc4ccc(F)cc4)C3)N2C1=O)c1cc2cc(CP(=O)(O)O)ccc2s1 [Example 369, ((2-(((3S,6S,7aS,8aR,9aR)-3-(3-(4-fluorobenzyl)azetidine-1-carbonyl)-5-oxodecahydro-1H-cyclopropa[d]pyrrolo[1,2-a]azocin-6-yl)carbamoyl)benzo[b]thiophen-5-yl)methyl)phosphonic acid], the pIC50 [1] was 6.00 to 7.00 and the pIC50 [2] was 4.52 to 5.52.
